In US20250109120A1, “INDOLINE DERIVATIVES FOR TREATMENT AND/OR PREVENTION OF TUMOR OR CELL PROLIFERATIVE AND FIBROSIS DISEASES” (NATIONAL TAIWAN UNIVERSITY, priority 2023, published 2025):

Legend:
A549 cells = assay: TGF-β1-induced EMT protein expression, western blot; assay type: cell-based, human; settings: test compounds 2 μM, senexin A 5 μM, pirfenidone 1 mM; TGF-β1 10 ng/mL
Experimental: FIGS. 4A-4B show the inhibition of epithelial-to-mesenchymal transition protein expressions by CDK8 inhibitors in human alveolar epithelial cells. […] Cell lysates were subjected to a Western blot analysis using the indicated antibodies. Results are shown as the mean t SEM from three independent experiments. *p<0.05, and ***p<0.001 compared to the control group; #p<0.05, ##p<0.01, and ###p<0.001 compared to the TGF-β1-treated group. […] Cell viabilities were determined by an MTT assay. Results are shown as the mean t SEM of three independent experiments.
Cells (106) were incubated for 10 min at 4° C. in lysis buffer (20 mM HEPES at pH 7.4, 2 mM EGTA, 50 mM β-glycerophosphate, 0.1% Triton X-100, 10% glycerol, 1 mM DTT, 1 μg/mL of leupeptin, 5 μg/mL of aprotinin, 1 mM phenylmethylsulfonyl fluoride, and 1 mM sodium orthovanadate), scraped off, incubated on ice for an additional 10 min, and centrifuged at 17,000 g for 30 min at 4° C. Protein samples (20 μg) were then electrophoresed on SDS-polyacrylamide gel electrophoresis (PAGE) gels and transferred to a nitrocellulose membrane, which was then blocked by incubation for 30 min at room temperature with 5% bovine serum albumin (BSA) in Tris-buffered saline with 0.1% Tween-20 (TBST). Immunoblotting was performed by overnight incubation at 4° C. with primary antibodies in TBST, followed by incubation for 1 h at room temperature with horseradish peroxidase (HRP)-conjugated secondary antibodies. Bound antibodies were measured using enhanced chemiluminescence (ECL) reagent (GE Healthcare, UK) and exposed to photographic film.

PC-3 cells = assay: MTT cell cytotoxicity assay; assay type: cell-based, human
Experimental: (§1) FIGS. 2A-2D show the evaluation of CDK8 inhibition by compound k. […] Cell viability was measured by MTT assay, and the 50% inhibitory concentration (IC50) values were calculated by a sigmoidal dose-response equation. […] Whole-cell lysates were subjected to western blotting with the indicated antibodies. The results are shown as the mean t SEM from at least three independent experiments (*p<0.05, **p<0.01, and ***p<0.001 vs. control group; #p<0.05 vs. relevant control).
(§2) Cell cytotoxicity was evaluated using the MTT assay. […] Then, 0.5 mg/mL MTT was added, and the plates were incubated for an additional 2 h at 37° C. The cells were then pelleted and lysed in 100 μL of dimethyl sulfoxide, and the absorbance at 550 nm was measured with a microplate reader.

DU145 cells [1] = assay: MTT cell cytotoxicity assay; assay type: cell-based, human
Experimental: as §1, §2

[2] = test system: STAT1-S727 phosphorylation (CDK8/19 kinase activity); assay: STAT1-S727 phosphorylation western blot in DU145/PC-3 cells; assay type: cell-based, human
Experimental: as §1
The cells were incubated in lysis buffer for 10 min at 4° C., scraped off, incubated on ice for an additional 10 min and then centrifuged at 17,000 g for 30 min at 4° C. Protein samples were electrophoresed on SDS-PAGE gels, transferred to PVDF membranes and blocked with 5% fat-free milk in PBS for 30 min at room temperature. Immunoblotting was performed overnight with primary antibodies in PBS at 4° C., followed by incubation with HRP-conjugated secondary antibodies for 1 h at room temperature. Bound antibodies will be measured using an ECL reagent and exposed to a photographic film. In the immunoprecipitation assay, cell lysates were immunoprecipitated with 1 μg of antibody and A/G agarose beads overnight at 4° C. After washing the precipitated beads three times with 1 mL ice-cold cell lysis buffer, bound immune complexes were separated by 10% SDS-PAGE and analyzed with immunoblotting.

CDK8 = CDK8 (Homo sapiens (Human), UniProt P49336); assay: LanthaScreen Eu Binding Assay, Thermo Fisher SelectScreen kinase service
Sequence of CDK8 (P49336 whole entry, looked up): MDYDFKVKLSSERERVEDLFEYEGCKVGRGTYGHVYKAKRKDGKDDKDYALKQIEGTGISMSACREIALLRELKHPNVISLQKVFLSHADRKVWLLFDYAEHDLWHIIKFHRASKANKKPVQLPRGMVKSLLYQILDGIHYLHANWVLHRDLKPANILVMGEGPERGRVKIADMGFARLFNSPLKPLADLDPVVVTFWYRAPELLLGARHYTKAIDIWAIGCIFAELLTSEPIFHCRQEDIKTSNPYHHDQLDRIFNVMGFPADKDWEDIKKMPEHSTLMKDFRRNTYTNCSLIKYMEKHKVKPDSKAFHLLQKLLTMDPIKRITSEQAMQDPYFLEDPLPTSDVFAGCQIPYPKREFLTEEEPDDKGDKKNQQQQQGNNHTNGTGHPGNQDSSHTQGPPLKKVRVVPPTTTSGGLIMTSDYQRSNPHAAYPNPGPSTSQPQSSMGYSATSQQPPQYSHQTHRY
Sequence of CDK8 (P24863 whole entry partner, looked up): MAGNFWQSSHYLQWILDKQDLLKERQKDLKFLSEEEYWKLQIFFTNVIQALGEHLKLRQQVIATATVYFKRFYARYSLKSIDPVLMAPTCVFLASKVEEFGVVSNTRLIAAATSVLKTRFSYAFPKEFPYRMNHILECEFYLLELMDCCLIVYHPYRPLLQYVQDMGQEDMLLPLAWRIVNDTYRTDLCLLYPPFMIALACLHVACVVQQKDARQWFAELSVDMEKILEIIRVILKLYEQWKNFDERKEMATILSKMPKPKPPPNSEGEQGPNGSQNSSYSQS
Experimental: Compounds were tested for kinase inhibitory activity using the Thermo Fisher SelectScreen service (www.thermofisher.com/selectscreen). For CDK8, the LanthaScreen Eu Binding Assay was used. Briefly, the assay employed utilizes a fluorescent tracer to a given kinase. This is used to detect the addition of an anti-tag antibody. When the tracer and antibody bind to the targeted kinase, the Forster resonance energy transfer is measured. When a kinase inhibitor is added to the assay, the tracer/kinase binding will be disrupted, producing low FRET detection and indicating kinase inhibitory activity. Evaluation of kinase activity of additional kinase targets utilized the LanthaScreen binding assay or the Z′-Lyte activity assay provided by Thermo Fisher SelectScreen service. The IC50 values were determined using sequential doses, and the inhibition curves were provided by Thermo Fisher Scientific.
The fragment-based drug design strategy in this study led to optimized CDK8 inhibitors with promising results. CDK8-inhibitory activities of the compounds (a-n) designed by this fragment-based drug design strategy were tested using the SelectScreen kinase service of ThermoFisher Scientific. The inhibitory effects of the 14 compounds and the referenced compound were tested at a concentration of 10 μM.

DU145 cells [3] = assay: TGF-β1-induced morphology change and wound migration; assay type: cell-based, human; settings: TGF-β1 10 ng/mL
Experimental: Images of the morphology of cells were taken at ×100 magnification. […] The cells were incubated with or without TGF-β1 (10 ng/mL) and compound k (2.5 and 10 μM), allowed to migrate into the wound area for 48 h and photographed. Cell migration into the wound was quantified using ImageJ software; the white solid line indicates time zero. The quantitative assessment of the mean number of cells in the scratch area is expressed as the mean t SEM from at least three independent experiments (***p<0.001 vs. control group; ##p<0.01 and ###p<0.001 vs. TGF-β1 treatment group). (C) PC-3 cells were incubated with 10 μM compound k/senexin A for 1 h, subsequently treated with TGF-β1 (10 ng/mL) for 24 h and incubated with the indicated antibodies and DAPI. The immunofluorescence images were photographed by a ZEISS ApoTome.2 microscope. Images were taken at 600× magnification.

CNC(=O)c1cc(Oc2ccc(NS(=O)(=O)c3ccc4c(c3)C(=C(C)C)C(=O)N4)c(F)c2)ccn1 [Compound k, 4-(3-Fluoro-4-((2-oxo-3-(propan-2-ylidene)indoline)-5-sulfonamido)phenoxy)-N-methylpicolinamide]
TGF-β1-triggered EMT protein expressions (A549 cells): significant inhibition | IC50 (PC-3 cells; PC-3, 24 h): > 30 µM | IC50 (PC-3 cells; PC-3, 72 h): > 30 µM | IC50 (DU145 cells [1]; DU145, 24 h): > 30 µM | IC50 (DU145 cells [1]; DU145, 72 h): > 30 µM | phosphorylation of STAT1 at Ser727 ([2]; DU145/PC-3, 24 h, concentration-dependent): suppressed | phosphorylation of STAT1 at Ser727 in CDK8-overexpressing cells ([2]; pcDNA3 CDK8 HA transfected DU145 and PC-3, concentration-dependent): significantly inhibited | CDK8 inhibition percentage (CDK8; 150 nM, 54-kinase panel): 64% | CDK8 Inhibition percentage at 10 μM (CDK8; 10 μM): 102% | IC50 (CDK8; read-out: Inhibition of CDK8 IC50): 0.129 µM | higher inhibitory potency compared to compound j (CDK8; vs compound j): ~1.5 fold | increase in CDK8 inhibitory activity compared to E966-0530 (CDK8; vs original compound E966-0530): 13 fold | TGF-β1-induced migration (wound closure) (DU145 cells [3]; 2.5 and 10 μM, 48 h): significantly inhibited | TGF-β1-induced morphological transition (DU145 cells [3]; 24 h): appeared to reverse these effects
